Experimental findings from patent publication US20220289719A1, “HETEROCYCLIC COMPOUNDS AS MNK INHIBITORS” (NANJING INNOCARE PHARMA TECH CO., LTD., priority 2017, published 2022) are described below.

Counter-ions that a name gives are not always drawn.

The target of this assay is T1, Human recombinant full-length MNK1 protein (Homo sapiens, UniProt Q9BUB5).
T1 construct: Human recombinant full-length MNK1 protein; purchased Thermo PR9138A
T1 sequence (Q9BUB5 whole entry): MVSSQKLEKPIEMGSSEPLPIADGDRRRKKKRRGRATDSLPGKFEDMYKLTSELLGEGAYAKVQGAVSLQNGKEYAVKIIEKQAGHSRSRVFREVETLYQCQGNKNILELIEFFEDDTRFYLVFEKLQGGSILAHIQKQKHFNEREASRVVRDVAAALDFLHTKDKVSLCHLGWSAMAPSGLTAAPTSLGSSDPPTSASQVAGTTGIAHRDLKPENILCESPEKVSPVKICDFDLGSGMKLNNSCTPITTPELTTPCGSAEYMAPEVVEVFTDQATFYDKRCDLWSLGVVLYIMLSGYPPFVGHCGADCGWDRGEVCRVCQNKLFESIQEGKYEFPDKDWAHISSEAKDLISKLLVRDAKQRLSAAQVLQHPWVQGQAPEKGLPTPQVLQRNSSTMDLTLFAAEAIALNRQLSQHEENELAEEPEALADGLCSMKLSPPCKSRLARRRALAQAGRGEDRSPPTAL
Briefly: MNK1 inhibitory activity assay (ADP-Glo in vitro kinase assay). The assay is classed as biochemical. The following applies: 10 concentration points. The procedure:
MNK1 Inhibitory Activity Assay: Evaluation of the effects of compounds of the invention on […] (MNK1) activity using in vitro kinase assays. The experimental methods are summarized as follows: The in vitro activity of MNK1 was determined by measuring the level of ADP produced in the kinase reaction using the ADP-Glo Kinase Assay Kit. The reaction buffer consisted of the following components: 50 mM HEPES, pH 7.5, 10 mM MgCl2, 1 mM EGTA, 0.01% Brij35. Human recombinant full-length MNK1 protein (Thermo, Cat. No. PR9138A) was diluted with a reaction buffer to a 3.13 ng/uL kinase solution. The substrate reaction solution consisted of a substrate diluted to 0.75 mg/ml in reaction buffer ([…], available from […] Domestic Company), 2250 uM ATP, the ADP-Glo reagent and kinase assay solution from Promega kit (Promega, V9102). […] If the compound IC50 value is very low, the initial concentration of the compound can be lowered. To a 384-well assay plate (Thermo, Cat. No. 264706) were added 1 uL of compound solution and 2 uL of MNK1 kinase solution. The mixture was mixed well and incubated for 30 minutes at room temperature; then 2 uL of substrate reaction solution was added, the reaction mixture was incubated for 120 minutes at room temperature. The reaction was terminated after an equal volume of 5uLADP-Glo solution was added, and the remaining ATP was completely consumed. After mixing for 60 minutes at room temperature, 10 ul of the kinase assay solution was added, and the mixture was uniformly mixed, and allowed to stand at room temperature for 40 minutes in the dark. The detection solution converts ADP into new ATP through coupled luciferase/luciferin, and ATP is converted into optical signal by Ultr-GloTM luciferase, which can be detected by Envision. The intensity of the light signal is proportional correlated with the amount of ADP produced in the kinase reaction, therefore, the activity of MNK1 kinase can be determined. In this experiment, the group without protein was used as a negative control (100% inhibition). The group with protein but without compounds was used as a positive control (0% inhibition).
Background: ADP-Glo first removes unused ATP, then detects ADP through luciferase.
As usually defined, the IC50 is the concentration needed to halve the response being measured. Take `COc1c(Nc2cc(Nc3ccc(Cl)cn3)ncn2)ccc2c1CNC2=O` [Compound 85, 5-((6-((5-Chloropyridin-2-yl)amino)pyrimidin-4-yl)amino)-4-methoxyisoindolin-1-one]: the half-inhibitory concentration (IC50) is 13.9 nM. For `CCOC(=O)n1ncc2cc(Nc3cc(NC(=O)C4CC4)ncn3)c(OC)cc21` [Compound 18, 1-Ethoxyacyl-5-(6-cyclopropionamidopyrimidin-4-ylamino)-6-methoxyindazole], the half-maximal inhibitory concentration (IC50) stood at 10.5 nM. For `COc1cc2[nH]ncc2cc1Nc1cc(NC(=O)C(C)(C)C)ncn1` [Compound 12, 5-(6-Pivaloylaminopyrimidin-4-ylamino)-6-methoxy-1H-indazole] the value was 729 nM; for `COc1cc2[nH]ncc2cc1Nc1cc(NC2CC2)ncn1` [Compound 31, 5-(6-Cyclopropylaminopyrimidin-4-ylamino)-6-methoxy-1H-indazole formate], 126 nM; for `COc1cc2[nH]ncc2cc1Nc1ncnc(N)c1OC` [Compound 46, 5-((6-Amino-5-methoxypyrimidin-4-yl)amino)-6-methoxy-1H-indazole], 49.4 nM. The value for `COc1c(Nc2cc(NC(=O)C3CC3)ncn2)ccc2c1CN(C)C2=O` [Compound 72, 5-((6-(Cyclopropionamido)pyrimidin-4-yl)amino)-4-methoxy-2-methylisodihydroindol-1-one] was 30.5 nM; that for `COc1cc2[nH]ncc2cc1Nc1cc(Nc2ccncn2)ncn1` [Compound 22, 5-(6-(pyrimidin-4-ylamino)pyrimidin-4-ylamino)-6-methoxy-1H-indazole formate] was 23.3 nM; that for `COc1cc2ncn(C(=O)OC(C)(C)C)c2cc1Nc1cc(NC(=O)C2CC2)ncn1` [Compound 61, 3-tert-butoxycarbonyl-5-(6-cyclopropionamidopyrimidin-4-ylamino)-6-methoxybenzimidazole] was 594 nM. The value for `COc1cc2[nH]ncc2cc1Nc1cc(NC(=O)C(C)C)ncn1` [Compound 19, N-(6-((6-Methoxy-1H-indazol-5-yl)amino)pyrimidin-4-yl)isobutyramide] was 45 nM; that for `COc1cc2[nH]ncc2cc1Nc1cc(Nc2cccc(Cl)n2)ncn1` [Compound 23, 5-(6-((6-Chloropyridin-2-yl)amino)pyrimidin-4-ylamino)-6-methoxy-1H-indazole] was 31.3 nM.

In the case of `COc1cc2[nH]ncc2cc1Nc1cc(Nc2ncc(Cl)cn2)ncn1` [Compound 26, 5-(6-((5-chloropyrimidin-2-yl)amino)pyrimidin-4-ylamino)-6-methoxy-1H-indazole], the 50% inhibitory concentration (IC50) turned out to be 36.6 nM. For `CCOC(=O)c1c(NC(C)=O)ncnc1Nc1cc2cnn(C(=O)OC(C)(C)C)c2cc1OC` [Compound 37, 1-tert-Butoxycarbonyl-5-((6-(acetylamino)-5-ethoxycarbonylpyrimidin-4-yl)amino)-6-methoxyindazole] the value was 23.8 nM. For `CNc1cncnc1Nc1cc2cn[nH]c2cc1OC` [Compound 62, 5-(5-Methylaminopyrimidin-4-yl) amino)-6-methoxy-1H-indazole formate] the value was 75.3 nM. The value for `COc1cc2[nH]ncc2cc1Nc1cc(NC(=O)c2ccccn2)ncn1` [Compound 11, 5-(6-(2-Pyridine) formylaminopyrimidin-4-ylamino)-6-methoxy-1H-indazole] was 532 nM; that for `COc1cc2c(cc1Nc1cc(NC(=O)C3CC3)ncn1)ncn2C(=O)OC(C)(C)C` [Compound 60, 1-tert-butoxycarbonyl-5-(6-cyclopropionamidopyrimidin-4-ylamino)-6-methoxybenzimidazole] was 792 nM. Regarding `COc1c(Nc2cc(Nc3cccc(Cl)n3)ncn2)ccc2c1CNC2=O` [Compound 86, 5-((6-((6-Chloropyridin-2-yl)amino)pyrimidin-4-yl)amino)-4-methoxyisoindolin-1-one], the half-inhibitory concentration (IC50) was 18.5 nM. The value for `COc1c(N)ncnc1Nc1ccc2c(c1OC)CNC2=O` [Compound 71, 5-((6-Amino-5-methoxypyrimidin-4-yl)amino)-4-methoxyisoindolin-1-one] was 128 nM.

Consider `COc1cc2[nH]ncc2cc1Nc1ncnc(N)c1C(=O)N(C)C` [Compound 40], for which the IC50 is 1140 nM.

In the case of `COc1c(Nc2cc(Nc3ccncn3)ncn2)ccc2c1CNC2=O` [Compound 70, 5-((6-(Pyrimidin-4-ylamino)pyrimidin-4-yl)amino)-4-methoxyisodihydroindol-1-one], the half-inhibitory concentration (IC50) is 17 nM.

For the molecule `COc1c(Nc2cc(Nc3ncccn3)ncn2)ccc2c1CNC2=O` [Compound 69, 5-((6-(Pyrimidin-2-ylamino)pyrimidin-4-yl)amino)-4-methoxyisodihydroindol-1-one], the half-maximal inhibitory concentration (IC50) came to 27.3 nM.

In the case of `COc1cc2[nH]ncc2cc1Nc1ncncc1OCCN1CCOCC1` [Compound 55, 5-(5-(2-(4-Morpholine)ethoxy)pyrimidin-4-yl) amino)-6-methoxy-1H-indazole formate], the IC50 turned out to be 187 nM. For `COc1c(Nc2cc(NC(=O)C3CC3)ncn2)ccc2c1C(C)(C)N(C)C2=O` [Compound 73, 5-((6-(Cyclopropionamido)pyrimidin-4-yl)amino)-4-methoxy-2,3,3-trimethylisoindole-1-one] the value was 188 nM. For `COc1cc2[nH]ncc2cc1Nc1ncnc2c1ncn2C` [Compound 59, N-(6-Methoxy-1H-indazol-5-yl)-9-methyl-9H-purin-6-amine] the value was 432 nM; for `COc1cc2c(cnn2C(=O)OC(C)(C)C)cc1Nc1ncnc(N)c1-c1ccccn1` [Compound 43], 264 nM. For `COc1cc2c(cnn2C(=O)C2CCCCC2)cc1Nc1cc(NC(=O)C2CC2)ncn1` [Compound 8, 1-Cyclohexanoyl-5-(6-cyclopropionamidopyrimidin-4-ylamino)-6-methoxyindazole], the IC50 stood at 64.1 nM. The value for `COc1cc2c(cnn2C(=O)C(C)C)cc1Nc1cc(NC(=O)C2CC2)ncn1` [Compound 13, 1-Isobutyryl-5-(6-cyclopropionamidopyrimidin-4-ylamino)-6-methoxyindazole] was 225 nM; that for `COc1cc2[nH]ncc2cc1Nc1cc(Nc2ccccn2)ncn1` [Compound 20, 5-(6-(Pyridin-2-ylamino)pyrimidin-4-ylamino)-6-methoxy-1H-indazole formate] was 29.2 nM; that for `COc1c(Nc2ncnc3[nH]cnc23)ccc2c1CNC2=O` [Compound 80, 5-((9H-Purin-6-yl)amino)-4-methoxyisoindolin-1-one] was 11.7 nM. For `COc1cc2[nH]ncc2cc1Nc1ncnc(N)c1F` [Compound 45, 5-((6-Amino-5-fluoropyrimidin-4-yl)amino)-6-methoxy-1H-indazole] the value was 35.3 nM. On to `CCOc1cncnc1Nc1cc2cn[nH]c2cc1OC` [Compound 56, 5-(5-Ethoxypyrimidin-4-yl) amino)-6-methoxy-1H-indazole formate], for which the IC50 was 19.8 nM. Consider `COc1c(Nc2cc(Nc3cc(Cl)ccn3)ncn2)ccc2c1CNC2=O` [Compound 87, 5-((6-((4-Chloropyridin-2-yl)amino)pyrimidin-4-yl)amino)-4-methoxyisoindolin-1-one], for which the IC50 stood at 19.1 nM. The value for `COc1cc2[nH]ncc2cc1Nc1cc(Nc2cnccn2)ncn1` [Compound 29, 5-(6-(Pyrazin-2-ylamino)pyrimidin-4-ylamino)-6-methoxy-1H-indazole] was 57.9 nM.
